Measurements taken from patent US20180078656A1, “CRYPTOPHYCIN-BASED ANTIBODY-DRUG CONJUGATES WITH NOVEL SELF-IMMOLATIVE LINKERS” (priority 2015, published 2018).
pIC50: −log10 of the molar value. Counter-ions that a name gives are not always drawn. Like-named read-outs stand apart in the source and are kept apart here.

How the values were obtained:
[1] = test system: SK-BR3 cells; assay: Cell viability assay (CellTiter-Glo), SK-BR3; assay type: cell-based; conditions: read-out: SK-BR3 CC50
Description: (§1) Tumor cell lines (breast carcinoma cell lines SKBR-3 and MCF7 and colon carcinoma cell line HCT116) were obtained from American Type Culture Collection and were grown according to standard protocols. […] The effects of the cryptophycin-55-glycinate ADC conjugate on tumor cell viability were assessed using the CellTiter-Glo® Luminescent Cell Viability Assay (Promega), according to the manufacturer protocol. […] Cells were plated in black-walled 96-well plates (5000 cells per well for SKBR-3 and MCF7; 2000 cells per well for HCT116) and allowed to adhere overnight at 37° C. in a humidified atmosphere of 5% CO2. […] Five to eight triplicate datapoints were recorded for each experimental condition. At the end of the incubation luminescence was measured using a Perkin Elmer Wallac 1450 MicroBeta TriLux detector. Compound cytotoxicity was evaluated in comparison to cells treated with PBS (antibodies) or 0.1% DMSO (compounds). CC50 values were calculated by fitting viability data with a four-parameter logistic equation using a Kaleidagraph software.

[2] = test system: HCT116 cells; assay: Cell viability assay (CellTiter-Glo), HCT116; assay type: cell-based; conditions: read-out: HCT116 CC50
Description: as §1

[3] = test system: H69AR cells; assay: Cell viability assay (CellTiter-Glo), drug-resistant H69AR; assay type: cell-based; conditions: for pIC50: 120 h incubation
Description: (§2) H69 cells and the drug-resistant counterpart H69AR were obtained from the American Type Culture Collection and were grown according to standard protocols. The effects of cryptophycin and cryptophycin conjugates on the viability of wild type and drug resistant tumor cell lines were assessed using the CellTiter-Glo® Luminescent Cell Viability Assay (Promega), according to the manufacturer protocol. Cells were plated in black-walled 96-well plates (5000 cells per well) and allowed to adhere overnight at 37° C. in a humidified atmosphere of 5% CO2. Medium was then removed and replaced by fresh culture medium containing increasing concentrations of cryptophycin analogs or doxorubicin as a control. Cells were incubated with compounds for 120 h at 37° C. in 5% CO2. Eight triplicate 1:3 serial dilution datapoints were recorded for each experimental condition (from […] to 10 nM for CRY55-Gly, CRY55-Gly-LINKER73 and CRY55-Gly-LINKER76, from 1.2 nM to 2700 nM for doxorubicin). At the end of the incubation, luminescence was measured using a Perkin Elmer Wallac 1450 MicroBeta TriLux detector. Compound cytotoxicity was evaluated in comparison to cells treated with 0.1% DMSO.

[4] = test system: H69 cells; assay: Cell viability assay (CellTiter-Glo), H69 wild type; assay type: cell-based; conditions: wild type H69, 120 h incubation
Description: as §2

[5] = test system: MCF7 cells; assay: Cell viability assay (CellTiter-Glo), MCF7, 96 h; assay type: cell-based, human; conditions: read-out: MCF7 CC50
Description: as §1

[6] = test system: AR42J cells; assay: Cell viability assay (CellTiter-Glo), AR42J, 120 h; assay type: cell-based, rat; conditions: 120 h incubation; for pIC50: SSTR2-high AR42J
Description: (§3) Tumor cell lines (the rat pancreatic tumor cell line AR42J and the human breast carcinoma cell line MCF7) were obtained from the American Type Culture Collection and were grown according to standard protocols.
(§4) The effects of the cryptophycin-55-glycinate-octreotide conjugate of Example 5 on the viability of the tumor cell lines AR42J (STTR2^high) and MCF7 (SSTR2^low) were assessed using the CellTiter-Glo® Luminescent Cell Viability Assay (Promega), according to the manufacturer protocol. Cells were plated in black-walled 96-well plates (5000 cells per well) and allowed to adhere overnight at 37° C. in a humidified atmosphere of 5% CO2. Medium was then removed and replaced by fresh culture medium containing increasing concentrations of cryptophycin-55-glycinate-octreotide conjugate (CRY55-Gly-Oct), unconjugated octreotide, or free cryptophycin-55-glycinate (CRY55-Gly), and the cells were incubated for 120 h at 37° C. in 5% CO2. Nine triplicate 1:3 serial dilution datapoints were recorded for each experimental condition (from 0.0015 nM to 10 nM for CRY55-Gly and CRY55-Gly-Oct, from 0.0015 uM to 10 uM for the unconjugated octreotide). At the end of the incubation luminescence was measured using a Perkin Elmer Wallac 1450 MicroBeta TriLux detector. Compound cytotoxicity was evaluated in comparison to cells treated with 0.1% DMSO. IC50 values were calculated by fitting viability data with a four-parameter logistic equation using a Kaleidagraph software. Residual cell viability plots obtained upon treatment of the AR42J and MCF7 cells with the different compounds are shown in FIG. 3 and FIG. 4, respectively.

[7] = test system: MCF7 cells; assay: Cell viability assay (CellTiter-Glo), MCF7, 120 h; assay type: cell-based, human; conditions: for pIC50: read-out: IC50, MCF7
Description: as §3, §4

Q: Which results are given for `COc1ccc(C[C@H]2NC(=O)/C=C/C[C@@H]([C@H](C)[C@@H](O)[C@@H](Cl)c3ccccc3)OC(=O)[C@H](CC(C)C)OC(=O)C(C)(C)CNC2=O)cc1Cl` [Cry-55, Cryptophycin-55]?
A: CC50 ([1]; Homo sapiens, SK-BR-3, 96 h): 0.076 nM; CC50 ([2]; Homo sapiens, HCT-116, 96 h): 0.1 nM; pIC50 ([3]; Homo sapiens): 9.64; pIC50 ([4]; Homo sapiens, NCI-H69): 10.00; CC50 ([5]; Homo sapiens, MCF7, 96 h): 0.18 nM

Q: What does the source list for `COc1ccc(C[C@H]2NC(=O)/C=C/C[C@@H]([C@H](C)[C@@H](OC(=O)CN)[C@@H](Cl)c3ccccc3)OC(=O)[C@H](CC(C)C)OC(=O)C(C)(C)CNC2=O)cc1Cl` [Cry-55-Gly, Cryptophycin-55-glycinate trifluoroacetate]?
A: CC50 ([1]; Homo sapiens, SK-BR-3, 96 h): 0.09 nM; CC50 ([2]; Homo sapiens, HCT-116, 96 h): 0.19 nM; pIC50 ([6]; Rattus norvegicus, AR-42J): 9.10; pIC50 ([3]; Homo sapiens): 9.82; pIC50 ([4]; Homo sapiens, NCI-H69): 10.05; pIC50 ([7]; Homo sapiens, MCF7, 120 h): 9.70; CC50 ([5]; Homo sapiens, MCF7, 96 h): 0.25 nM

Q: Which results are given for `COc1ccc(C[C@H]2NC(=O)/C=C/C[C@@H]([C@H](C)[C@@H](OC(=O)CNC(=O)[C@@H]3CCCN3C(=O)CNC(=O)[C@H](CCCNC(N)=O)NC(=O)[C@@H](NC(=O)CCOCCOCCOCCOCCn3cc(CCC(=O)N[C@H](Cc4ccccc4)C(=O)N[C@H]4CSSCC(C(=O)N[C@H](CO)[C@@H](C)O)NC(=O)C([C@@H](C)O)NC(=O)[C@H](CCCCN)NC(=O)[C@@H](Cc5c[nH]c6ccccc56)NC(=O)[C@H](Cc5ccccc5)NC4=O)nn3)C(C)C)[C@@H](Cl)c3ccccc3)OC(=O)[C@H](CC(C)C)OC(=O)C(C)(C)CNC2=O)cc1Cl` (some centres unmarked) [Oct-Cry55-Gly conjugate]?
A: pIC50 [6]: 9.05; fold difference of IC50 on MCF7, conjugate versus cryptophycin-55-glycinate ([7]; MCF7, 120 h incubation): 90 fold; pIC50 ([7]; SSTR2-low MCF7, 120 h incubation): 7.57

Q: Which results are given for `C[C@@H](O)[C@@H]1NC(=O)[C@H](CCCCN)NC(=O)[C@@H](Cc2c[nH]c3ccccc23)NC(=O)[C@H](Cc2ccccc2)NC(=O)[C@@H](NC(=O)[C@H](N)Cc2ccccc2)CSSC[C@@H](C(=O)N[C@H](CO)[C@@H](C)O)NC1=O` [Octreotide]?
A: inhibition of AR42J viability ([6]; up to 10 uM): 30% inh. up to 10 uM; IC50, MCF7 (in words) ([7]; SSTR2-low MCF7, 120 h, tested […] to 10 uM): completely ineffective

Q: How did the “effect on H69AR cell viability (in words)” value ([3]; 120 h, 1.2 nM to 2700 nM) turn out when `COc1cccc2c1C(=O)c1c(O)c3c(c(O)c1C2=O)C[C@@](O)(C(=O)CO)C[C@@H]3O[C@H]1C[C@H](N)[C@H](O)[C@H](C)O1` [doxorubicin] was run?
A: only minor effects

Q: With “Azide-TEG-Val-Cit-Gly-Pro-Gly-cryptophycin-55 [Example 5]” as the compound, how does the pIC50 [3] read?
A: 8.44

Q: And the pIC50 [4]?
A: 8.77

Q: With “Maleimide-PEG-Val-Cit-Pro-Gly-Cryptophycin-55-glycinate [Cry-55-Linker]” as the compound, how does the CC50 ([1]; HER2-positive SK-BR3, 96 h incubation) read?
A: 2.6 nM

Q: What about the CC50 ([2]; Her2-low HCT116, 96 h incubation) of the same compound?
A: 4.4 nM

Q: And the CC50 ([5]; Her2-low MCF7, 96 h incubation)?
A: 6.1 nM
